Measurements as given in BindingDB's records for PubMed 21964340.

What was measured:
[1] = Inhibition of PUS1 (unknown origin) incubated for 1 hr by colloidal coomassie staining based LC-MS/MS analysis
[2] = Inhibition of SFRS10 (unknown origin) incubated for 1 hr by colloidal coomassie staining based LC-MS/MS analysis
[3] = Inhibition of RFC1 (unknown origin) incubated for 1 hr by colloidal coomassie staining based LC-MS/MS analysis
[4] = Inhibition of RPS15A (unknown origin) incubated for 1 hr by colloidal coomassie staining based LC-MS/MS analysis
[5] = Binding affinity against CCT2 (unknown origin) assessed as apparent dissociation constant incubated for 1 hr by colloidal coomassie staining based LC-MS/MS analysis
[6] = Binding affinity against PSME3 (unknown origin) assessed as apparent dissociation constant incubated for 1 hr by colloidal coomassie staining based LC-MS/MS analysis
[7] = Binding affinity against NOLC1 (unknown origin) assessed as apparent dissociation constant incubated for 1 hr by colloidal coomassie staining based LC-MS/MS analysis
[8] = Inhibition of KPNA1 (unknown origin) incubated for 1 hr by colloidal coomassie staining based LC-MS/MS analysis
[9] = Binding affinity against TUBA4A (unknown origin) assessed as apparent dissociation constant incubated for 1 hr by colloidal coomassie staining based LC-MS/MS analysis
[10] = Inhibition of PIAS4 (unknown origin) incubated for 1 hr by colloidal coomassie staining based LC-MS/MS analysis
[11] = Inhibition of LENG8 (unknown origin) incubated for 1 hr by colloidal coomassie staining based LC-MS/MS analysis
[12] = Inhibition of PSMD11 (unknown origin) incubated for 1 hr by colloidal coomassie staining based LC-MS/MS analysis
[13] = Binding affinity against SETD1B (unknown origin) assessed as apparent dissociation constant incubated for 1 hr by colloidal coomassie staining based LC-MS/MS analysis
[14] = Inhibition of CCNL2 (unknown origin) incubated for 1 hr by colloidal coomassie staining based LC-MS/MS analysis
[15] = Inhibition of HIST1H2BA (unknown origin) incubated for 1 hr by colloidal coomassie staining based LC-MS/MS analysis
[16] = Inhibition of OGT (unknown origin) incubated for 1 hr by colloidal coomassie staining based LC-MS/MS analysis
[17] = Inhibition of NACC1 (unknown origin) incubated for 1 hr by colloidal coomassie staining based LC-MS/MS analysis
[18] = Binding affinity against PWWP2B (unknown origin) assessed as apparent dissociation constant incubated for 1 hr by colloidal coomassie staining based LC-MS/MS analysis
[19] = Inhibition of CORO1A (unknown origin) incubated for 1 hr by colloidal coomassie staining based LC-MS/MS analysis
[20] = Inhibition of TKT (unknown origin) incubated for 1 hr by colloidal coomassie staining based LC-MS/MS analysis
[21] = Inhibition of LAS1L (unknown origin) incubated for 1 hr by colloidal coomassie staining based LC-MS/MS analysis
[22] = Inhibition of UBA1 (unknown origin) incubated for 1 hr by colloidal coomassie staining based LC-MS/MS analysis
[23] = Inhibition of POLR2B (unknown origin) incubated for 1 hr by colloidal coomassie staining based LC-MS/MS analysis
[24] = Inhibition of ABCF1 (unknown origin) incubated for 1 hr by colloidal coomassie staining based LC-MS/MS analysis
[25] = Inhibition of SMCHD1 (unknown origin) incubated for 1 hr by colloidal coomassie staining based LC-MS/MS analysis
[26] = Inhibition of PTBP1 (unknown origin) incubated for 1 hr by colloidal coomassie staining based LC-MS/MS analysis
[27] = Binding affinity against BRD9 (unknown origin) assessed as apparent dissociation constant incubated for 1 hr by colloidal coomassie staining based LC-MS/MS analysis
[28] = biological target: Sodium-dependent noradrenaline transporter (Homo sapiens) (UniProt P23975); assay: Inhibition of human NET by scintillation proximity assay
Sodium-dependent noradrenaline transporter (Homo sapiens), sequence (P23975 whole entry, looked up): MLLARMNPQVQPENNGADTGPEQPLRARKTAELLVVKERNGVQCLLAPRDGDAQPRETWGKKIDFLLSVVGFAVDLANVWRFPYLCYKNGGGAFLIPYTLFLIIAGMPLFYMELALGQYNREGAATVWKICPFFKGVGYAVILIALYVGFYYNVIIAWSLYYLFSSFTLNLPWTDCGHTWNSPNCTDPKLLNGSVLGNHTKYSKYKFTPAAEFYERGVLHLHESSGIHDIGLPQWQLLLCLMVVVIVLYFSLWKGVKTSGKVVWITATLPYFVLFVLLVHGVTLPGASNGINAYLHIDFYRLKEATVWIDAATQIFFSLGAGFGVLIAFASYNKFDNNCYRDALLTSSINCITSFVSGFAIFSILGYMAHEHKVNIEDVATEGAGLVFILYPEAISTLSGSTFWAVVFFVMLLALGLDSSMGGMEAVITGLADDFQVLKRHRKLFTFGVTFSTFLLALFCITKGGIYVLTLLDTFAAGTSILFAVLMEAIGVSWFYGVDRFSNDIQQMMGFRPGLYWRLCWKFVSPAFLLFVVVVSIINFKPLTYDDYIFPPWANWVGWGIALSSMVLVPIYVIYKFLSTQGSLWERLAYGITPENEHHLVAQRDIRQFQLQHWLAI

[29] = Inhibition of INTS8 (unknown origin) incubated for 1 hr by colloidal coomassie staining based LC-MS/MS analysis
[30] = Binding affinity against RFC1 (unknown origin) assessed as apparent dissociation constant incubated for 1 hr by colloidal coomassie staining based LC-MS/MS analysis
[31] = Binding affinity against OGT (unknown origin) assessed as apparent dissociation constant incubated for 1 hr by colloidal coomassie staining based LC-MS/MS analysis
[32] = Inhibition of CSNK2A1 (unknown origin) incubated for 1 hr by colloidal coomassie staining based LC-MS/MS analysis
[33] = Inhibition of WDR33 (unknown origin) incubated for 1 hr by colloidal coomassie staining based LC-MS/MS analysis
[34] = Inhibition of SF3B14 (unknown origin) incubated for 1 hr by colloidal coomassie staining based LC-MS/MS analysis
[35] = Binding affinity against GTF2I (unknown origin) assessed as apparent dissociation constant incubated for 1 hr by colloidal coomassie staining based LC-MS/MS analysis
[36] = Binding affinity against DSG1 (unknown origin) assessed as apparent dissociation constant incubated for 1 hr by colloidal coomassie staining based LC-MS/MS analysis
[37] = Inhibition of PRDX6 (unknown origin) incubated for 1 hr by colloidal coomassie staining based LC-MS/MS analysis
[38] = Inhibition of ARL1 (unknown origin) incubated for 1 hr by colloidal coomassie staining based LC-MS/MS analysis
[39] = Inhibition of RPN2 (unknown origin) incubated for 1 hr by colloidal coomassie staining based LC-MS/MS analysis
[40] = Binding affinity against ELL (unknown origin) assessed as apparent dissociation constant incubated for 1 hr by colloidal coomassie staining based LC-MS/MS analysis

**Q.** Which IC50 [1] does the source give for `CCNC(=O)C[C@@H]1N=C(c2ccc(Cl)cc2)c2cc(OC)ccc2-n2c(C)nnc21` here?
**A.** > 10000 nM

**Q.** What about the IC50 [2] of the same molecule?
**A.** 230 nM

**Q.** What about the IC50 [3] of the same molecule?
**A.** 50 nM

**Q.** What about the IC50 [4] of the same molecule?
**A.** 1390 nM

**Q.** And the Kd [5]?
**A.** 1620 nM

**Q.** And the Kd [6]?
**A.** 84 nM

**Q.** And the Kd [7]?
**A.** 63 nM

**Q.** What about the IC50 [8] of the same molecule?
**A.** 30 nM

**Q.** And the Kd [9]?
**A.** 102 nM

**Q.** What about the IC50 [10] of the same molecule?
**A.** > 10000 nM

**Q.** And the IC50 [11]?
**A.** 100 nM

**Q.** What about the IC50 [12] of the same molecule?
**A.** 60 nM

**Q.** And the Kd [13]?
**A.** 45 nM

**Q.** And the IC50 [14]?
**A.** 50 nM

**Q.** What about the IC50 [15] of the same molecule?
**A.** > 10000 nM

**Q.** What about the IC50 [16] of the same molecule?
**A.** 480 nM

**Q.** And the IC50 [17]?
**A.** > 10000 nM

**Q.** What about the Kd [18] of the same molecule?
**A.** 25 nM

**Q.** What about the IC50 [19] of the same molecule?
**A.** > 10000 nM

**Q.** What about the IC50 [20] of the same molecule?
**A.** 5270 nM

**Q.** And the IC50 [21]?
**A.** 270 nM

**Q.** And the IC50 [22]?
**A.** > 10000 nM

**Q.** And the IC50 [23]?
**A.** 150 nM

**Q.** And the IC50 [24]?
**A.** > 10000 nM

**Q.** What about the IC50 [25] of the same molecule?
**A.** 1070 nM

**Q.** What about the IC50 [26] of the same molecule?
**A.** > 10000 nM

**Q.** What about the Kd [27] of the same molecule?
**A.** 20 nM

**Q.** And the IC50 [28]?
**A.** > 100000 nM

**Q.** What about the IC50 [29] of the same molecule?
**A.** > 10000 nM

**Q.** And the Kd [30]?
**A.** 54 nM

**Q.** What about the Kd [31] of the same molecule?
**A.** 223 nM

**Q.** And the IC50 [32]?
**A.** 120 nM

**Q.** What about the IC50 [33] of the same molecule?
**A.** 1090 nM

**Q.** What about the IC50 [34] of the same molecule?
**A.** > 10000 nM

**Q.** What about the Kd [35] of the same molecule?
**A.** 7550 nM

**Q.** And the Kd [36]?
**A.** 4620 nM

**Q.** What about the IC50 [37] of the same molecule?
**A.** > 10000 nM

**Q.** And the IC50 [38]?
**A.** > 10000 nM

**Q.** What about the IC50 [39] of the same molecule?
**A.** > 10000 nM

**Q.** And the Kd [40]?
**A.** 66 nM
